Results on two compounds are retold here after patent publication US5491155A, “Substituted thiadiazoles, compositions containing them and their use as antimicrobial and marine antifouling agents” (The Dow Chemical Company, priority 1994, dated 1996).

In brackets after ≈: the same amount, converted by molar mass. Where two headings read alike, the source gives them in different places.

Test [1] concerns Pseudomonas aeruginosa (PRD-10). The experiment in a line: MIC in nutrient agar, Pseudomonas aeruginosa (PRD-10). Type of test: cell-based, Pseudomonas aeruginosa (ATCC 15442). Conditions: PRD, 48 hours, read-out: Minimum Inhibitory Concentration (MIC). Here is the method: (§1) The minimum inhibitory concentration (MIC) for the compounds listed in Table I is determined for bacteria, using nutrient agar, and 7 yeast and fungi, using malt yeast agar. A one percent solution of the test compound is prepared in a mixture of acetone and water.
(§2) Nutrient agar is prepared at pH 6.8, representing a neutral medium, and at pH 8.2, representing an alkaline medium. The nutrient agars are prepared by adding 23 g of nutrient agar to one-liter of deionized water. In addition, the alkaline medium is prepared by adjusting a 0.04M solution of N-(tris-(hydroxymethyl)methyl)glycine buffered deionized water with concentrated sodium hydroxide to a pH of 8.5.
(§3) The test tubes containing the agar are cooled in a water bath until the temperature of the agar is 48° C. Then, an appropriate amount of the one percent solution of the test compound is added (except in the controls where no compound is added) to the respective test tubes so that the final concentrations are 500, 250, 100, 50, 25, 10, 2.5, 1.0 and zero parts per million of the test compound in the agar, thus having a known concentration of test compound dispersed therein. The contents of the test tubes are then transferred to respective petri plates. After drying for 24 hours, the petri plates containing nutrient agar are inoculated with bacteria and those containing malt yeast agar are inoculated with yeast and fungi.
(§4) The inoculation with bacteria is accomplished by using the following procedure. Twenty-four hour-cultures of each of the bacteria are prepared by incubating the respective bacteria in tubes containing nutrient broth for 24 hours at 30° C. in a shaker. Dilutions of each of the 24 hour-cultures are made so that nine separate suspensions (one for each of the nine test bacteria) are made, each containing 10^8 colony forming units (CFU) per mL of suspension of a particular bacteria. Aliquots of 0.3 mL of each of the bacterial suspensions are used to fill the individual wells of Steer's Replicator. For each microbial suspension, 0.3 mL was used to fill three wells (i.e., three wells of 0.3 mL each) so that for the nine different bacteria, 27 wells are filled. The Steer's Replicator is then used to inoculate both the neutral and alkaline pH nutrient agar petri plates.
(§5) The inoculated petri plates are incubated at 30° C. for 48 hours and then read to determine if the test compound which is incorporated into the agar prevented growth of the respective bacteria.
(§6) Table II lists the bacteria, yeast and fungi used in the MIC test described above along with their respective American Type Culture Collection (ATCC) identification numbers.
(§7) In Tables III and IV, the MIC values of the compounds described in Table I as compared to the MIC of a standard commercial preservative (with 1-(3-chloroalkyl)-3,5,7-triaza-1-azoniaadamantane chloride as the active agent and referred to in Tables III and IV as "STANDARD I") are set forth for the bacteria organisms and yeast/fungi organisms which are listed in Table II.

The subject of test [2] is Salmonella choleraesuis. Nature of the test: MIC in nutrient agar, Salmonella choleraesuis. The test is classed as cell-based, Salmonella choleraesuis (ATCC 10708). As to conditions: Salmonella enterica, Sc, 48 hours, read-out: Minimum Inhibitory Concentration (MIC). As for the experimental part: as §1, §2, §3, §4, §5, §6, §7
Test [3] relates to Staphylococcus aureus. Nature of the test: MIC in nutrient agar, Staphylococcus aureus. Type of test: cell-based, Staphylococcus aureus (ATCC 6538). Conditions: Sa, 48 hours, read-out: Minimum Inhibitory Concentration (MIC). Here is the method: as §1, §2, §3, §4, §5, §6, §7
In test [4] the test system is marine organisms. The experiment in a line: Marine antifouling test on coated panels. As to conditions: scale 10 (completely free of marine organism growth) to 0 (completely covered). Here is the method:
Test panels are prepared from clear, rigid polyvinyl chloride film that is 0.381×10^-3 m thick and has one textured surface. The test panels are 0.1524 m by 0.1524 m squares that have 0.00635 m holes punched at corners on 0.127 m centers. A 0.102 square template, with a 0.067 m diameter hole at the center, is attached to the center of the textured surface of the test panels.
A candidate marine antifoulant compound (1.0 g) is stirred into a resinous latex binder (9.0 g). A portion of the compound/binder mixture (1.5 g, is added to the center of the test panel and uniformly spread over the circular area inside the template.
Water is added dropwise as needed to properly spread the compound/binder mixture. The template prevents the compound/binder mixture from spreading beyond the uncovered area. […] The template is then removed. The test panel is then allowed to dry for 8 to 12 hours at room temperature.
Two test panels are prepared for each candidate marine antifoulant compound. Two control test panels are also prepared by only treating with the resinous latex binder. One test panel of each candidate marine […] compound is attached over a white background to the topside of an exposure support apparatus. The second test panel is attached over a black background to the underside of the exposure support apparatus. The exposure support apparatus is placed horizontally 0.0254 m under a marine surface with the white background topside facing up.
After being removed from the exposure support apparatus, each test panel is inspected and rated for marine organism growth on both the treated and untreated areas of the test panel. The marine organisms present on the treated and untreated areas are noted. The presence of algae spores and bacterial slime are noted but not included in rating each test panel. The test panels are rated on a scale from 10 (representing completely free of marine organism growth) to 0 (representing completely covered with marine organism growth).
In addition, test panels were prepared using tributyl tin oxide, a known marine antifouling compound.

Turning to `N#CSCSc1nsnc1SCSC#N` [Example 4, Bis(thiomethylthiocyanato)-1,2,5-thiadiazole], the MIC in test [1] (pH 6.8, 30° C.) was 25 µg/mL (≈ 85.5 µM); in test [1] (pH 8.2, 30° C.), 25 µg/mL (≈ 85.5 µM); in test [2] (pH 6.8, 30° C.) it was 25 µg/mL (≈ 85.5 µM); in test [2] (pH 8.2, 30° C.), 25 µg/mL (≈ 85.5 µM); in test [3] (pH 6.8, 30° C.) it was < 10 µg/mL; in test [3] (pH 8.2, 30° C.) it was < 10 µg/mL. The “Marine Antifouling Rating” value in test [4] (10 Week Test, Bottom Panel) is 9; in test [4] (10 Week Test, Top Panel) it was 9; in test [4] (20 Week Test, Bottom Panel), 5; in test [4] (20 Week Test, Top Panel), 7.

For the compound `N#CSc1nsnc1SC#N` [Example 2, Bis(thiocyanato)-1,2,5-thiadiazole], the MIC in test [1] (pH 6.8, 30° C.) is 25 µg/mL (≈ 125 µM); in test [1] (pH 8.2, 30° C.) it was 250 µg/mL (≈ 1250 µM); in test [2] (pH 6.8, 30° C.), 25 µg/mL (≈ 125 µM); in test [2] (pH 8.2, 30° C.), 100 µg/mL (≈ 499 µM); in test [3] (pH 6.8, 30° C.), 25 µg/mL (≈ 125 µM); in test [3] (pH 8.2, 30° C.) it was 100 µg/mL (≈ 499 µM). Further, the “Marine Antifouling Rating” value in test [4] (10 Week Test, Bottom Panel) was found to be 9; in test [4] (10 Week Test, Top Panel), 9; in test [4] (20 Week Test, Bottom Panel), 7; in test [4] (20 Week Test, Top Panel), 2.
